ChEMBL document CHEMBL1201862, “PubChem BioAssay data set” (2004)
Activity calls are given as the source filed them.

Assays:
[1] = Trypanosoma cruzi growth suppression in host cells – NIH3T3 host cells, beta-gal luminescence, confirmation (AID 2044); type: functional, cell-based;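 further: intracellular parasites grown in NIH/3T3 mouse fibroblasts as host cells; luminescent beta-galactosidase reporter signal from transgenic T. cruzi replicating inside host cells; inhibitors lower the luminescence signal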
[2] = NIH3T3 cell viability loss – ATP luminescence, mouse fibroblasts, counter-screen, dose response (AID 2010); type: functional, cell-based;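 further: cells exposed to compound for about 90 hours before reading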
[3] = molecular target: T1, Heat shock factor protein 1 (Mus musculus, UniProt P38532); assay: decrease of HSF1-responsive luciferase luminescence – cell-based, NIH3T3, dose retest, confirmation (AID 2382); type: functional;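 further: NIH3T3 fibroblasts with HSF1-driven luciferase reporter stressed by proteasome inhibitor MG132; luminescence from HSF1-driven luciferase expression after 8 hours of MG132 stress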
T1 sequence (P38532 whole entry): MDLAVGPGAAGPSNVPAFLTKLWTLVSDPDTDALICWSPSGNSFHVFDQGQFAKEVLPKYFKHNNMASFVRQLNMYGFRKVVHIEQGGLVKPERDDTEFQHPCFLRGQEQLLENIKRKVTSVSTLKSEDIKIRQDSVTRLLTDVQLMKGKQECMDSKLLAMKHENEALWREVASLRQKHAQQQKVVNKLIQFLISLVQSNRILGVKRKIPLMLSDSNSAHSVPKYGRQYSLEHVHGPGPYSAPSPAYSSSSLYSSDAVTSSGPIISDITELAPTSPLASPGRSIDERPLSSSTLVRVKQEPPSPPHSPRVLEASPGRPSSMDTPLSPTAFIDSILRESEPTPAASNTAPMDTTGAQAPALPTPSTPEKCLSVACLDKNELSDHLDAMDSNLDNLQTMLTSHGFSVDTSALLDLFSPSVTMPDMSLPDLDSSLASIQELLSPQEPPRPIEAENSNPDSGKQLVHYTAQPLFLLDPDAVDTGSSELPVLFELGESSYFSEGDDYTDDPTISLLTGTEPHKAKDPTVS

[4] = alpha-synuclein stem-loop luciferase translation blockers – H4 neuroglioma cells, luminescence, confirmation (AID 1988); type: functional, cell-based
[5] = luciferase reporter signal suppression in cells – H4 neuroglioma cells, luminescence, dose response (AID 1990); type: functional, cell-based
[6] = Luminescence Cell-Based Dose Response HTS to Identify Inhibitors of 5'UTR Stem-Loop Driven Prion Protein mRNA Translation in H4 Neuroglioblastoma Cells. [Related pubchem assays: 1827 (Project Summary), 1813 (Primary HTS)]; type: functional
[7] = molecular target: FAD-linked sulfhydryl oxidase ALR (Homo sapiens, UniProt P55789); assay: ALR-catalysed DTT oxidation blockers – biochemical, H2O2 detection, luminescence, cherry-pick, dose response (AID 493248)
Cytochrome P450 2C19 = Cytochrome P450 2C19 (Homo sapiens, UniProt P33261); assay: Cytochrome panel assay with activity outcomes. Panel member name: p450-cyp2c19 Compounds with AC50 equal or less than 10 uM are considered active; type: functional
[8] = NIH-3T3 fibroblast cytotoxicity, dose response, cytotoxicity control, cell-based, fluorescence, Alamar Blue, secondary assay (AID 2327); type: functional;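 further: NIH-3T3 mouse fibroblasts cultured with fluconazole at 8 µg/mL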
Streptococcus = assay: GAS UMAA2166 growth inhibition – luminescence, BacTiterGlo, counter-screen for streptokinase expression inhibitor project, dose response (AID 1915); type: functional, organism-based;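 further: potency for reduction of bacterial viability or growth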
[9] = system: Streptococcus sp. 'group A'; assay: Streptococcus pyogenes SK(-)GAS viability under kanamycin – luminescence, BacTiterGlo, confirmation, counter-screen for streptokinase expression inhibitor project, dose response (AID 1900); type: functional, organism-based
INS1 = assay: INS-1E survival protection against cytokine death – cell-based, luminescence, retest, dose response (AID 449756); type: functional; conditions: Rattus norvegicus;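 further: cell death triggered by IL-1 beta plus TNF-alpha plus IFN-gamma mixture; protective hits raise ATP signal compared with cytokine alone wells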

Sequence of Cytochrome P450 2C19 (P33261 whole entry): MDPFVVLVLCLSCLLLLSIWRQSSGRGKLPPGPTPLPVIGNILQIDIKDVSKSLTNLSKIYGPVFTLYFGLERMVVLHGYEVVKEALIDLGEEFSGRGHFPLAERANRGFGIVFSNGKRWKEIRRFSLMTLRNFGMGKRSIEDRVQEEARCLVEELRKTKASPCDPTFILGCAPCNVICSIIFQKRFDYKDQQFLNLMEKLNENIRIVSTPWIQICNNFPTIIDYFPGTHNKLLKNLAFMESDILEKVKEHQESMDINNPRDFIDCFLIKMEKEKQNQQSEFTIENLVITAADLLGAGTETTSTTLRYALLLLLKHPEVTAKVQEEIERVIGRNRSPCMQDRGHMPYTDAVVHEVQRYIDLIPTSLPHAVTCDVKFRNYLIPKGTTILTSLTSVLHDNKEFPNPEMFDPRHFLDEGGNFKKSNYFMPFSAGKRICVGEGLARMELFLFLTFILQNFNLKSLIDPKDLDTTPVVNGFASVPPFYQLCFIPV
Sequence of FAD-linked sulfhydryl oxidase ALR (P55789 whole entry): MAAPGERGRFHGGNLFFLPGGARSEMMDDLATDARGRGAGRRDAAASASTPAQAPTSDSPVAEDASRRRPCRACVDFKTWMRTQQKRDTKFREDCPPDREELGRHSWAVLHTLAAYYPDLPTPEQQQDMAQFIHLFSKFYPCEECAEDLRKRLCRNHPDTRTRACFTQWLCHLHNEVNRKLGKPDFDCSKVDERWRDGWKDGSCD

O=C(N/N=C/c1ccccc1F)NC12CC3CC(CC(C3)C1)C2
EC50 [1]: 2.78 µM (active) | EC50 [2]: > 30 µM (not active)

COc1cc(OC)cc(-c2cc(N3C(=O)Nc4ccccc4N3O)[nH]n2)c1
EC50 [3]: 73.7 µM (active)

Brc1ccc2c(c1)[C@H]1OCC[C@H]1[C@@H](c1cccs1)N2
EC50 [4]: 13.2 µM (active) | EC50 [5]: > 60 µM (not active) | EC50 [6]: 17.2 µM (active)

Nc1ccc(Cl)c(S(=O)(=O)Nc2ccc(Cl)cc2)c1
EC50 [1]: 39.7 µM (active) | EC50 [2]: > 60 µM (not active)

COC(=O)C1=CN(Cc2ccc(OC)c(OC)c2)C=C(C(=O)OC)C1c1cccc(OC)c1OC
EC50 [1]: 0.384 µM (active) | EC50 [2]: > 60 µM (not active)

CCN(CC)c1ccc(NC(=O)C2CC3CCC2C3)cc1 (stereo not given)
AC50 [7]: 0.431 µM (active)

O=C(CSc1oc(-c2cccs2)nc1S(=O)(=O)c1ccccc1)NC1CCCCC1
EC50 [1]: 1.13 µM (active) | EC50 [2]: > 60 µM (inconclusive)

CC1=NN(c2ccccc2)C(=O)C1/C=C1/C(=O)NC(=O)N(c2cc(C)cc(C)c2)C1=O (stereo not given)
AC50 [7]: 1.76 µM (active)

CS(=O)(=O)Nc1nc2ccccc2[nH]1
EC50 [3]: > 195 µM (not active)

COc1ccc(CCN(C)CCC(=O)Nc2ccc(C)cc2)cc1OC
EC50 [1]: 0.227 µM (active) | EC50 [2]: > 60 µM (not active)

COc1c(Cl)cc(Cl)cc1CNCCNCC(C)O (stereo not given)
AC50 (Cytochrome P450 2C19; read-out: AC50): 14.1 µM (inconclusive)

C=CCn1c(S)nnc1-c1cccn(Cc2ccccc2)c1=O
EC50 [4]: > 120 µM (not active) | EC50 [5]: > 120 µM (not active) | AC50 (Cytochrome P450 2C19; read-out: AC50): 25.1 µM (inconclusive) | EC50 [6]: 27.4 µM (active)

Cc1ccc(S(=O)(=O)CC(=O)Nc2ccc(S(=O)(=O)Nc3onc(C)c3C)cc2)cc1
EC50 [3]: > 195 µM (not active)

c1ccc(CNc2ncnc3sc4c(c23)CCCC4)nc1
AC50 [7]: 37.2 µM (active)

COc1ccc(Nc2ncnc3sc(-c4ccccc4)cc23)cc1
EC50 [3]: > 195 µM (not active)

COc1ccccc1C(=O)NCCn1cc(SCC(=O)Nc2cc(C)on2)c2ccccc21
EC50 [4]: > 120 µM (not active) | EC50 [5]: 16.2 µM (active) | EC50 [6]: > 120 µM (not active)

Oc1[nH]c2ccc(Br)cc2c1N=Nc1ccc(C(F)(F)F)cn1
EC50 [1]: 2.33 µM (active) | EC50 [2]: > 60 µM (not active)

Cn1c(=O)[nH]c(=O)c2c1nc(CN1CCOCC1)n2CCCO
AC50 (Cytochrome P450 2C19): inconclusive

Cc1cccc2cc(CN(Cc3cccs3)Cc3nnnn3Cc3ccccc3)c(O)nc12
EC50 [1]: 2.68 µM (active) | EC50 [2]: > 30 µM (not active)

COc1ccc(CNC(=O)c2ccc(CS(=O)(=O)c3ccc(Br)cc3)o2)cc1
EC50 [3]: > 195 µM (not active)

c1ccc(-n2ncc3c(NCCCN4CCOCC4)ncnc32)cc1
AC50 (Cytochrome P450 2C19; read-out: AC50): 15.8 µM (inconclusive)

CCOC(=O)c1cc(-c2ccccc2)sc1NC(=O)CN1C(=O)NC(CC)(c2ccccc2)C1=O (stereo not given)
EC50 [1]: 2.17 µM (active) | EC50 [2]: > 60 µM (inconclusive)

O=C(CN1CCN(S(=O)(=O)c2ccc3ccccc3c2)CC1)NC(=O)NC1CCCCC1
EC50 [4]: 46.8 µM (active) | EC50 [5]: 13 µM (active) | EC50 [6]: > 120 µM (not active)

CN1C2CCC1CC(OC(=O)c1ccc(Cl)cc1)C2 (stereo not given)
AC50 (Cytochrome P450 2C19; read-out: AC50): 5.62 µM (inconclusive)

O=C(CC(Sc1ccc(Br)cc1)C(=O)O)c1ccc(F)cc1 (stereo not given)
EC50 [1]: 2.1 µM (active) | EC50 [2]: > 30 µM (not active)

O=C(NCc1ccc(C(=O)O)cc1)OCc1ccccc1
EC50 [3]: > 195 µM (not active)

O=C(NCC(c1ccco1)N1CCc2ccccc21)c1ccccc1F (stereo not given)
AC50 [7]: 1.67 µM (active)

CC(=O)N1CCOCCOCCN(C(C)=O)CCOCCOCC1
EC50 [8]: > 150 µM (inconclusive)

COc1ccc(CNC(=O)OCCN2CCN(S(=O)(=O)c3ccc(C)cc3)CCC2=O)cc1
EC50 [3]: > 195 µM (not active)

CCOC(=O)N1CCN(c2nc(C)c3c(n2)CCCC3=O)CC1
EC50 [3]: > 195 µM (not active)

O=C(c1cc([N+](=O)[O-])ccc1N1CCCCC1)N1CCc2ccccc21
EC50 [4]: 10.9 µM (active) | EC50 [5]: > 120 µM (not active) | EC50 [6]: > 120 µM (not active)

Cc1ccc(S(=O)(=O)CCC(=O)Nc2ccc(Br)cc2)cc1
EC50 [3]: > 195 µM (not active)

COc1cc(/C=C2/C(=O)ON=C2C)cc(Cl)c1O
AC50 [7]: 16 µM (active)

COc1ccccc1N1CCN(C(S)=Nc2ccc(F)cc2)CC1
EC50 [3]: 54.6 µM (active)

O=C(NCc1ccco1)c1ccccc1NS(=O)(=O)c1ccc(Cl)s1
AC50 [7]: 2.1 µM (active)

CC(=O)Nc1ccc2c(c1)OCCO2
AC50 (Cytochrome P450 2C19; read-out: AC50): 17.8 µM (inconclusive)

CCC1=NN2C(=N)/C(=C\c3cccn3-c3ccc(C)c(C)c3)C(=O)N=C2S1
EC50 (Streptococcus): 6.01 µM (active) | EC50 [9]: 3.34 µM (active)

CCc1ccc(-[n+]2cc(-c3ccc(F)cc3)n3c2SCCC3)cc1
AC50 (INS1): 0.429 µM (active)

COc1ccc(/C=C2\SC(=S)N(CCCC(=O)N3CCN(C)CC3)C2=O)cc1
EC50 [1]: 1.06 µM (active) | EC50 [2]: 8.7 µM (active)

Cc1c(Br)cnn1C(C)C(=O)N1CCN(c2ccc(F)cc2)CC1 (stereo not given)
AC50 [7]: 0.578 µM (active)

Cc1cc(C(=O)N2CCCC(Nc3ccc(C(C)C)cc3)C2)nn1C (stereo not given)
AC50 [7]: 6.69 µM (active)

CCN(CCCNS(=O)(=O)c1ccc2c(c1)CCN2C(C)=O)c1cccc(C)c1
AC50 [7]: 2.81 µM (active)

O=C(Nc1ccc(-c2nc3ccccc3s2)cc1)C1=COCCO1
EC50 [4]: 2.95 µM (active) | EC50 [6]: 5.8 µM (active)

CCc1ccc(C(=O)NNc2cc(Cl)ccc2Cl)cc1
AC50 (INS1): 6.64 µM (active)

Cc1ccc(NC(S)=NC2CC3CCC(C2)N3Cc2ccco2)cc1C (stereo not given)
EC50 [3]: > 195 µM (not active)

O=C(CCn1c(=S)oc2ccccc21)NC1CCCCCC1
EC50 [3]: > 195 µM (not active)

Cc1cccc(N2CCN(C(=O)NC3CCCCC3)CC2C)c1 (stereo not given)
AC50 [7]: 6.6 µM (active)

Cc1ccc2nc(Cl)c(-c3ccccc3)cc2c1
EC50 [4]: > 120 µM (not active) | EC50 [5]: > 120 µM (not active) | EC50 [6]: > 120 µM (not active)

Cc1ccc(-c2nc(-c3cccnc3)sc2CC(=O)O)cc1
AC50 [7]: 3.45 µM (active)

O=C(Cn1cc(C(=O)c2ccco2)c2ccccc21)NC1CCCCC1
EC50 [3]: > 195 µM (not active)

Cc1cccc(C(=O)NC(=S)N2CCN(c3ccc([N+](=O)[O-])cc3)CC2)c1
EC50 [3]: > 195 µM (not active)

COc1ccccc1NS(=O)(=O)c1cccc(NC(=O)c2[nH]c(C)c(C(C)=O)c2C)c1
AC50 (INS1): 31.1 µM (active)

C/C(=N\Nc1nc(C)cc(-c2ccccc2)n1)c1ccc(O)cc1
AC50 (INS1): 0.993 µM (active)

CCN(CC)S(=O)(=O)c1cc(C)ccc1N=C(S)Nc1cccnc1
AC50 (INS1): 43.2 µM (active)

C/C(=N\Nc1ccc(Cl)c(C(=O)O)c1)c1cc2ccccc2o1
AC50 [7]: 0.138 µM (active)

Cc1ccc(C(=O)N(Cc2cccnc2)Cc2cc3cc(C)ccc3n3nnnc23)cc1
EC50 [1]: 1.29 µM (active) | EC50 [2]: > 60 µM (not active)

C1=C(c2ccccc2)CCN(c2[nH]cnc3ncnc2-3)C1
EC50 [3]: > 195 µM (not active)

CC(=O)O[C@H]1CC[C@]2(C)[C@H]3CC=C4[C@@H]5[C@@H](C)[C@H](C)CC[C@]5(C(=O)O)CC[C@@]4(C)[C@]3(C)CC[C@H]2C1(C)C [O-ACETYLURSOLIC ACID]
EC50 (Streptococcus): 3.26 µM (active) | EC50 [9]: 2.11 µM (active)
